Experiments:
skin cells = experiment: potentiating glutathione synthesis within skin cells; format: cell-based; details: compared with cystine
[1] = solubility of NDAC relative to cystine; format: physicochemical
[2] = organic solvents such as alcohols, ethers, esters, ketones; cited from earlier work

| solubility compared with cystine [1] | SMILES | performance for potentiating glutathione synthesis within skin cells (skin cells) | solubility in organic solvents [2] |
| --- | --- | --- | --- |
| more soluble | CC(=O)N[C@@H](CSSC[C@H](NC(C)=O)C(=O)O)C(=O)O [NDAC, N,N′-diacetyl-L-cystine] | comparable to that of cystine | – |
| – | N[C@@H](CSSC[C@H](N)C(=O)O)C(=O)O [cystine, L-Cystine] | – | practically insoluble |
